This note sets out measurements from patent publication US7919508B2, “3-piperidinylisochroman-5-ols as dopamine agonists” (Aventis Pharmaceuticals Inc., priority 2004, dated 2011).

Assay [1] has as its target T1, human dopamine D1 receptor (Homo sapiens, UniProt P21728).
T1 construct: A 1.4 Kb Hind III to Xho I fragment was subcloned into the vector pMMLV; expressed in transfected cells; host or cells: CHO cells, clone CHO-D1M#9 (plasmid pHD1MMLV), membranes
Briefly: [3H]-SCH-23390 binding to cloned human dopamine D1 receptors (CHO cell membranes). To be noted: competitive binding, [3H]-SCH-23390, cloned human D1 in CHO membranes; read-out: D1 affinity Ki. How it is done:
[^3H]-SCH-23390 Binding to Cloned Human Dopamine D1 Receptors
Determination of relative binding affinity of potential neuropsychiatric and other agents for the human dopamine D1 receptor.
The human D, cDNA was obtained from the laboratory of Dr. Marc Caron in the vector pCMV5. A 1.4 Kb Hind III to Xho I fragment was subcloned into the vector pMMLV. The plasmid pHD1MMLV was then sequenced completely. Transient transfections in COS-7 cells were performed and D1 specific binding was obtained. The construct pHD1MMLV was then transfected stably into CHO cells and 72 G418-resistant clones were isolated. High expressors were identified by mRNA dot blot analysis. Six high expressors were further characterized by binding and then clone CHO-D1M#9 was chosen for detailed pharmacological characterization. This clone was then grown in suspension culture for the purpose of obtaining enough protein to accommodate several months of screening.
B. Cell Culture Conditions
• 1. […] Cells are transferred to suspension culture when at least […] are available (this allows for 300,000 cells/ml in a 50 ml spinner flask; this is the ideal suspension density). Cells are removed from flasks with trypsin, spun down at 1000×G and resuspended the pellet in fresh medium: • 50% CHO-SFM-II+50% Ham's F12 w/10% FBS (final FBS conc. 5%)+400 μg/ml G418+1% P/S. • 3. After the transfer to suspension culture, growth is monitored and cell viability is assessed using trypan blue exclusion. Total and viable cell count on 5 sectors of the hemocytometer are recorded. When the viable cell density reaches 600,000 cell/ml, the volume is doubled. • 4. After 1 week of growth in the 50/50 medium, the cells are spun down and transferred to a new spinner flask and replaced with 75% CHO-SFM II/25% Ham's F12+10% FBS plus the pen-strep and G418. Thereafter every 3 days, the medium is replaced with new medium containing a decreasing amount of FBS as follows:
• 5. The final maintenance culturing medium is made up as follows: • A stock mixture of 10 ml of pen-strep, 0.5 ml of […] (active; final concentration: 200 μg/ml) G418 and 1 ml of FBS are mixed and filtered and refrigerated. A volume (11.5 ml) of this mixture is added to a freshly opened 1 L bottle of CHO-SFM II. C. Membrane Preparation
Cells are harvested into 250 ml centrifuge tubes and spun down at 1200×G. The medium is removed and 100 ml PBS (phosphate-buffered saline) is added to each centrifuge tube; cells are resuspended and spun down again. The PBS is removed and the final pellet is homogenized with a polytron on ice at a medium setting.
The membrane suspension is diluted in water and samples (10, 50 and 100 μl; q.s. to 100 μl with water) are diluted with 100 μl of 1% SDS. The sample is vortexed and allowed to stand for 5 min. Two aliquots each of the solubilized protein sample are placed in clean 13×100 test tubes for the assay. Instructions are followed as outlined in the BioRad DC protein determination kit (Catalog # 500-0112). OD readings that fall between 0.1-0.5 (mid-range of standard curve) should typically be used for calculations. Protein concentrations are calculated from a standard curve using bovine serum albumin as standard by linear regression and interpolation.
Following cell harvesting and protein determination, the homogenate is diluted with 10% DMSO to the correct volume based on Bmax and relative size of individual experiments to be conducted. The concentrated protein is stored in cryogenic vials in aliquots of 1-1.5 ml. Samples may be stored in −80° C. freezer or in liquid nitrogen.

Assay [2] has as its target human dopamine D2Long (D2L) receptors (Homo sapiens, UniProt P14416).

Structures can show the parent of a compound that is named as a salt.

T1 sequence (P21728 whole entry, the tested form may be a part): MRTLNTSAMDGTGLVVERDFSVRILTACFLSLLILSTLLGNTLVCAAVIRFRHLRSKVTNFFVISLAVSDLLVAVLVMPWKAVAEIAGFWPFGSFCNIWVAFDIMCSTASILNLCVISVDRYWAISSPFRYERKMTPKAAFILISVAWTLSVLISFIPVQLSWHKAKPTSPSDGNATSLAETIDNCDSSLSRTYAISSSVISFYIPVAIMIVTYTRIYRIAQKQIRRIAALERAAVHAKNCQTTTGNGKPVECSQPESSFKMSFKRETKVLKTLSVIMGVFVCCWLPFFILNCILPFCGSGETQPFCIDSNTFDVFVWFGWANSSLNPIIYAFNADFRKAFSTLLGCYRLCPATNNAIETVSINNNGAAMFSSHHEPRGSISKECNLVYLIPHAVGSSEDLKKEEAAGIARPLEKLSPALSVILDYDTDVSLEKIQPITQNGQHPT
human dopamine D2Long (D2L) receptors, sequence (P14416 whole entry): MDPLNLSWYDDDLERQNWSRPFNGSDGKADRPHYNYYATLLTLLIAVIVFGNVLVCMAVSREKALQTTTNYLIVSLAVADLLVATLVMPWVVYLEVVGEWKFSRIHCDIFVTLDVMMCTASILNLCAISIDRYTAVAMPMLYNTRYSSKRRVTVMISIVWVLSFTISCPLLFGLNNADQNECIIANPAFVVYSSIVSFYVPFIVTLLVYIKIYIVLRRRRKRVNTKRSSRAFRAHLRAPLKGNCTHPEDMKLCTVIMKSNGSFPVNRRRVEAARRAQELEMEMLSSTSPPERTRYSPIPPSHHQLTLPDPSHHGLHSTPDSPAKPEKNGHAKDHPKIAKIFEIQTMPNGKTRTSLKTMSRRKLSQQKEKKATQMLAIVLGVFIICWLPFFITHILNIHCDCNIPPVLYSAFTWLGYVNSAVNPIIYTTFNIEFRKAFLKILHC

As to `Cc1ccc2c(c1O)C[C@@H](C1CCN(S(=O)(=O)Cc3ccc(Cl)c(Cl)c3)CC1)O[C@H]2CN` [Example 160, (1R,3S)-1-Aminomethyl-3-[1-(3,4-dichloro-phenylmethanesulfonyl)-piperidin-4-yl]-6-methyl-isochroman-5-ol hydrochloride], the Ki in assay [1] is 264 nM; in assay [2], at least 100000 nM.
On the same counts, the results for `Cc1ccc2c(c1O)C[C@@H](C1CCN(S(=O)(=O)C[C@@]34CC[C@@H](CC3=O)C4(C)C)CC1)O[C@H]2CN` [Example 162, 1(R)-[4-((1R,3S)-1-Aminomethyl-5-hydroxy-6-methyl-isochroman-3-yl)-piperidine-1-sulfonylmethyl]-7,7-dimethyl-bicyclo[2.2.1]heptan-2-one hydrochloride] are 382 nM and at least 100000 nM.
Regarding `Cc1ccc2c(c1O)C[C@@H](C1CCN(S(=O)(=O)C[C@]34CC[C@H](CC3=O)C4(C)C)CC1)O[C@H]2CN` [Example 163, 1(S)-[4-((1R,3S)-1-Aminomethyl-5-hydroxy-6-methyl-isochroman-3-yl)-piperidine-1-sulfonylmethyl]-7,7-dimethyl-bicyclo[2.2.1]heptan-2-one hydrochloride], the values for the inhibitory constant (Ki) in assay [1] and in assay [2] were 320 nM and at least 100000 nM, respectively.
On the same counts, the results for `Cc1ccc2c(c1O)C[C@@H](C1CCN(S(=O)(=O)N(C)C)CC1)O[C@H]2CN` [Example 164, 4-((1R,3S)-1-Aminomethyl-5-hydroxy-6-methyl-isochroman-3-yl)-piperidine-1-sulfonic acid dimethylamide hydrochloride] are 400 nM and at least 100000 nM.
Taken in the same sequence, the figures for `Cc1ccc2c(c1O)C[C@@H](C1CCN(S(=O)(=O)N3CCCCC3)CC1)O[C@H]2CN` [Example 165, (1R,3S)-1-Aminomethyl-6-methyl-3-[1-(piperidine-1-sulfonyl)-piperidin-4-yl]-isochroman-5-ol hydrochloride] were 227 nM and at least 10000 nM.
On the same counts, the results for `Cc1ccc2c(c1O)C[C@@H](C1CCN(S(=O)(=O)N3CCC(Cc4ccccc4)CC3)CC1)O[C@H]2CN` [Example 166, (1R,3S)-1-Aminomethyl-3-[1-(4-benzyl-piperidine-1-sulfonyl)-piperidin-4-yl]-6-methyl-isochroman-5-ol hydrochloride] are 207 nM and 246 nM.
On to `Cc1ccc2c(c1O)C[C@@H](C1CCN(Cc3ccccc3)CC1)O[C@H]2CN(C)C` [Example 169, (1R,3S)-3-(1-Benzyl-piperidin-4-yl)-1-dimethylaminomethyl-6-methyl-isochroman-5-ol], for which the Ki in assay [1] was determined as 158 nM; in assay [2], 172 nM.
On the same counts, the results for `CCN(CC)C[C@@H]1O[C@H](C2CCN(Cc3ccccc3)CC2)Cc2c1ccc(C)c2O` [Example 170, (1R,3S)-3-(1-Benzyl-piperidin-4-yl)-1-diethylaminomethyl-6-methyl-isochroman-5-ol] are 1670 nM and 377 nM.
On the same counts, the results for `CNC[C@@H]1O[C@H](C2CCN(Cc3ccccc3)CC2)Cc2c1ccc(C)c2O` [Example 171, (1R,3S)-3-(1-Benzyl-piperidin-4-yl)-6-methyl-1-methylaminomethyl-isochroman-5-ol] are 98 nM and 317 nM.
Regarding `CCNC[C@@H]1O[C@H](C2CCN(Cc3ccccc3)CC2)Cc2c1ccc(C)c2O` [Example 172, (1R,3S)-3-(1-Benzyl-piperidin-4-yl)-1-ethylaminomethyl-6-methyl-isochroman-5-ol], the Ki in assay [1] is 522 nM; in assay [2], 279 nM.
Taken in the same sequence, the figures for `CCN(C)C[C@@H]1O[C@H](C2CCN(Cc3ccccc3)CC2)Cc2c1ccc(C)c2O` [Example 173, (1R,3S)-3-(1-Benzyl-piperidin-4-yl)-1-[(ethyl-methyl-amino)-methyl]-6-methyl-isochroman-5-ol] were 425 nM and 241 nM.
Taken in the same sequence, the figures for `CCCNC[C@@H]1O[C@H](C2CCN(Cc3ccccc3)CC2)Cc2c1ccc(C)c2O` [Example 174, (1R,3S)-3-(1-Benzyl-piperidin-4-yl)-6-methyl-1-propylaminomethyl-isochroman-5-ol] were 510 nM and 248 nM.
On the same counts, the results for `CCCN(C)C[C@@H]1O[C@H](C2CCN(Cc3ccccc3)CC2)Cc2c1ccc(C)c2O` [Example 175, (1R,3S)-3-(1-Benzyl-piperidin-4-yl)-6-methyl-1-[(methyl-propyl-amino)-methyl]-isochroman-5-ol] are 3070 nM and at least 10000 nM.
For the compound `C=CCN(C)C[C@@H]1O[C@H](C2CCN(Cc3ccccc3)CC2)Cc2c1ccc(C)c2O` [Example 176, (1R,3S)-1-[(Allyl-methyl-amino)-methyl]-3-(1-benzyl-piperidin-4-yl)-6-methyl-isochroman-5-ol], the Ki in assay [1] was 1700 nM; in assay [2] it was 124 nM.
On the same counts, the results for `Cc1ccc2c(c1O)C[C@@H](C1CCN(Cc3ccccc3)CC1)O[C@H]2CNC1CCC1` [Example 177, (1R,3S)-3-(1-Benzyl-piperidin-4-yl)-1-cyclobutylaminomethyl-6-methyl-isochroman-5-ol] are at least 10000 nM and 305 nM.
On the same counts, the results for `C=CCN(CC=C)C[C@@H]1O[C@H](C2CCN(CC(=O)c3ccccc3)CC2)Cc2c1ccc(C)c2O` [Example 180, 2-[4-((1R,3S)-1-Diallylaminomethyl-5-hydroxy-6-methyl-isochroman-3-yl)-piperidin-1-yl]-1-phenyl-ethanone] are 642 nM and 86 nM.
Taken in the same sequence, the figures for `CCCN(CCC)C[C@@H]1O[C@H](C2CCN(Cc3ccccc3)CC2)Cc2c1ccc(C)c2O` [Example 188, (1R,3S)-3-(1-Benzyl-piperidin-4-yl)-1-dipropylaminomethyl-6-methyl-isochroman-5-ol dihydrochloride] were 586 nM and 140 nM.
For the compound `Cc1ccc(C(=O)NCCN2CCC([C@@H]3Cc4c(ccc(C)c4O)[C@H](CN)O3)CC2)cc1` [Example 190, N-{2-[4-((1R,3S)-1-Aminomethyl-5-hydroxy-6-methylisochroman-3-yl)-piperidin-1-yl]-ethyl}-4-methylbenzamide dihydrobromide], the Ki was 46 nM in assay [1] and 361 nM in assay [2].
